According to article PMC7442609 (ACS chemical biology, 2020):
Where two headings read alike, the source gives them in different places. Peptide text beside a SMILES is read from it. * marks the point of attachment. Cbz = O=C(OCc1ccccc1)*

Tests used:
[1] = system: RAW-Difluo mLC3 cells; assay: RAW-Difluo mLC3 autophagy reporter assay; type: cell-based, murine; details: 16 hours
[2] = system: luxBCADE-expressing H37Rv Mtb in THP-1 cells; type: cell-based, Mycobacterium tuberculosis; details: for effect of WRT on anti-Mtb activity in macrophages: THP-1 cells, + WRT (15 μM), 7 days
[3] = biological target: 20S proteasome (Homo sapiens, UniProt P28072+P28074+Q99436); assay: Proteasome-Glo assay on purified 20S proteasome; type: biochemical; details: 1 hr; for IC50 caspase-like activity / IC50 chymotrypsin-like activity / IC50 trypsin-like activity: purified 20S proteasome
[4] = biological target: T1, proteasomes (Mus musculus, UniProt O55234+P70195+Q60692); assay: Ub-R-GFP reporter assay of proteasomal activity in cells; type: cell-based, murine
T1 sequence (O55234 60-264): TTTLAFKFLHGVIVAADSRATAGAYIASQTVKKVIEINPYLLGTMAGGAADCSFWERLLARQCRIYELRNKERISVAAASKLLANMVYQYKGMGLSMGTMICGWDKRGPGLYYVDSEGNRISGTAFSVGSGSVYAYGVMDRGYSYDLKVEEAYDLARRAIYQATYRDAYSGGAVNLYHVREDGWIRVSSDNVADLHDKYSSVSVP
T1 sequence (Q60692 1-238): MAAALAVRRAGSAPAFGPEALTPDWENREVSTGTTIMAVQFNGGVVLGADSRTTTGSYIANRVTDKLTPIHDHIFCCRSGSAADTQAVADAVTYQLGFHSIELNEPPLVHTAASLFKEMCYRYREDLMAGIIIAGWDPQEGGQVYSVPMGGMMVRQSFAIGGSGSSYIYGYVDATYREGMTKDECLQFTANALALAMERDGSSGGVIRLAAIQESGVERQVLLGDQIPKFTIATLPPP
T1 sequence (P70195 44-277): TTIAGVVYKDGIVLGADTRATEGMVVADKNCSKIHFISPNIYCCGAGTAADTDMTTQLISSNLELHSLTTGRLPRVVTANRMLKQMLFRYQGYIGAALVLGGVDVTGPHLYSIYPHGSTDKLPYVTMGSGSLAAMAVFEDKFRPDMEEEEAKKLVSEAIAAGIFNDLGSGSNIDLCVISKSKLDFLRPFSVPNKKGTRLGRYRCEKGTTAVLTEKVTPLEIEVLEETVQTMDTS

[5] = system: FoxM1; type: cell-based, murine; details: 5 μM, 16 hours, western blot
[6] = system: RFP-LC3-THP-1 cells infected with Mtb; type: cell-based, human; details: 16 hr at 10 μM, TSR 2.5 μM
[7] = system: Mtb H37Rv; assay: Resazurin microtiter assay; type: cell-based, Mycobacterium tuberculosis
[8] = system: EIF-2α; type: cell-based, murine; details: 5 μM, 16 hours, western blot
[9] = system: Parkin; type: cell-based, murine; details: 5 μM, 16 hr, western blot
[10] = system: PINK1; type: cell-based, murine; details: 5 μM, 16 hr, western blot
[11] = system: THP-1 cells; type: cell-based, human; details: uninfected THP-1 cells

Row | Compound | induction of autophagy (in words) [1] | inhibition of intracellular Mtb growth [2] | effect of WRT on anti-Mtb activity in macrophages [2] | FoxM1 protein levels [5] | autophagosomes (RFP-LC3 puncta) per Mtb infected cell [6] | also measured
1 | C=C(NC(=O)C(=C)NC(=O)c1csc(-c2ccc3c(n2)-c2csc(n2)-c2csc(n2)C2C(C)CC(O)N2C(=O)C(Cc2ccc(O)cc2)N=C(O)C2CSC(=N2)C(Cc2ccccc2)N=C(O)c2csc(n2)C(CC(N)=O)N=C(O)c2nc-3oc2C)n1)C(=O)O (stereo not drawn) [GE, GE37468] | induced autophagy at concentrations comparable to TSR |  |  |  |  | 
2 | C=C(NC(=O)C(=C)NC(=O)c1csc(C2=N[C@@H]3c4csc(n4)[C@H]4NC(=O)c5csc(n5)[C@H]([C@](C)(O)[C@@H](C)O)NC(=O)[C@H]5CSC(=N5)/C(=C/C)NC(=O)[C@H]([C@@H](C)O)NC(=O)c5csc(n5)[C@]3(CC2)NC(=O)[C@H](C)NC(=O)C(=C)NC(=O)[C@H](C)NC(=O)[C@H]([C@@H](C)CC)N[C@@H]2C=Cc3c([C@H](C)O)cc(nc3[C@H]2O)C(=O)O[C@@H]4C)n1)C(N)=O [TSR, thiostrepton] | potently induced autophagy | potent inhibitory effects on intracellular Mtb growth | no significant effect on their anti-Mtb activity in macrophages | significant decrease in FoxM1 protein levels | significantly increased the number of RFP-LC3 puncta per cell | direct inhibition of reconstituted 20S proteasome [3]: directly inhibited the proteasome; IC50 caspase-like activity [3]: substantially less active; IC50 chymotrypsin-like activity [3]: sub-micromolar; IC50 trypsin-like activity [3]: sub-micromolar; EC50 [4]: 1450 nM; activity against Mtb in vitro (REMA, in words) [7]: active against Mtb in vitro at IC50s comparable to kanamycin
3 | thiocillin III [TCIII] | also induced autophagy | potent inhibitory effects on intracellular Mtb growth | no significant effect on their anti-Mtb activity in macrophages |  | significantly increased the number of RFP-LC3 puncta per cell | EC50 ([1]; read-out: EC50 induction of autophagy (RFP-LC3 puncta per cell)): 90 nM; activity against Mtb in vitro (REMA, in words) ([7]; Mtb H37Rv in culture, 4 days): active against Mtb in vitro at IC50s comparable to kanamycin; EIF-2α phosphorylation [8]: led to EIF-2α phosphorylation
4 | CC(C)C[C@@H](C=O)NC(=O)[C@H](CC(C)C)NC(=O)[C@H](CC(C)C)NC(=O)OCc1ccccc1 [MG-132] (Cbz-Leu-Leu-Leu-aldehyde) |  |  |  | significant decrease in FoxM1 protein levels |  | Parkin expression level [9]: little to no increase over basal levels; PINK1 expression level [10]: little to no increase over basal levels
5 | C=C(NC(=O)C(=C)NC(=O)c1ccc2c(n1)-c1coc(n1)C(=C)NC(=O)C(=C)NC(=O)c1nc(oc1C)C(=C)NC(=O)C(C(C)(C)O)NC(=O)C(=C)NC(=O)c1nc(oc1C)/C(=C/C)NC(=O)C(C(C)O)NC(=O)c1csc-2n1)C(N)=O (stereo not drawn) [BER, berninamycin] | also induced autophagy |  |  |  |  | 
6 | C=C(NC(=O)c1csc(-c2nc3c(cc2O)-c2nc(cs2)C(=O)NC(C(C)O)C(=O)N/C(=C\C)c2nc(cs2)C(=O)NC2CC(O)C(=O)OCc4cccc5[nH]c(c(C)c45)C(=O)SCC(NC(=O)c4csc2n4)c2nc-3cs2)n1)C(N)=O (stereo not drawn) [NOS, nosiheptide] | induced autophagy at concentrations comparable to TSR | potent inhibitory effects on intracellular Mtb growth | no significant effect on their anti-Mtb activity in macrophages | no effect on FoxM1 levels | significantly increased the number of RFP-LC3 puncta per cell | direct inhibition of reconstituted 20S proteasome [3]: directly inhibited the proteasome; IC50 caspase-like activity [3]: low micromolar; IC50 chymotrypsin-like activity [3]: low micromolar; IC50 trypsin-like activity [3]: low micromolar; EC50 [4]: 380 nM; activity against Mtb in vitro (REMA, in words) ([7]; Mtb H37Rv in culture, 4 days): active against Mtb in vitro at IC50s comparable to kanamycin
7 | COC[C@H]1OC(=O)c2coc3c2[C@@]1(C)C1=C(C3=O)[C@@H]2CCC(=O)[C@@]2(C)C[C@H]1OC(C)=O [WRT, wortmannin, reference compound] |  |  |  |  | < 5 | effect on thiopeptide-induced autophagy [11]: abrogates thiopeptide-induced autophagy
